{
  "source": "patent US10723723B2",
  "about": "“Substituted bicycle heterocyclic derivatives useful as ROMK channel inhibitors” (BRISTOL-MYERS SQUIBB COMPANY, priority 2016, dated 2020)",
  "key": {"hERG channels": {"biological_target": "hERG channels (Homo sapiens (Human), UniProt Q12809)", "sequence (Q12809 whole entry)": "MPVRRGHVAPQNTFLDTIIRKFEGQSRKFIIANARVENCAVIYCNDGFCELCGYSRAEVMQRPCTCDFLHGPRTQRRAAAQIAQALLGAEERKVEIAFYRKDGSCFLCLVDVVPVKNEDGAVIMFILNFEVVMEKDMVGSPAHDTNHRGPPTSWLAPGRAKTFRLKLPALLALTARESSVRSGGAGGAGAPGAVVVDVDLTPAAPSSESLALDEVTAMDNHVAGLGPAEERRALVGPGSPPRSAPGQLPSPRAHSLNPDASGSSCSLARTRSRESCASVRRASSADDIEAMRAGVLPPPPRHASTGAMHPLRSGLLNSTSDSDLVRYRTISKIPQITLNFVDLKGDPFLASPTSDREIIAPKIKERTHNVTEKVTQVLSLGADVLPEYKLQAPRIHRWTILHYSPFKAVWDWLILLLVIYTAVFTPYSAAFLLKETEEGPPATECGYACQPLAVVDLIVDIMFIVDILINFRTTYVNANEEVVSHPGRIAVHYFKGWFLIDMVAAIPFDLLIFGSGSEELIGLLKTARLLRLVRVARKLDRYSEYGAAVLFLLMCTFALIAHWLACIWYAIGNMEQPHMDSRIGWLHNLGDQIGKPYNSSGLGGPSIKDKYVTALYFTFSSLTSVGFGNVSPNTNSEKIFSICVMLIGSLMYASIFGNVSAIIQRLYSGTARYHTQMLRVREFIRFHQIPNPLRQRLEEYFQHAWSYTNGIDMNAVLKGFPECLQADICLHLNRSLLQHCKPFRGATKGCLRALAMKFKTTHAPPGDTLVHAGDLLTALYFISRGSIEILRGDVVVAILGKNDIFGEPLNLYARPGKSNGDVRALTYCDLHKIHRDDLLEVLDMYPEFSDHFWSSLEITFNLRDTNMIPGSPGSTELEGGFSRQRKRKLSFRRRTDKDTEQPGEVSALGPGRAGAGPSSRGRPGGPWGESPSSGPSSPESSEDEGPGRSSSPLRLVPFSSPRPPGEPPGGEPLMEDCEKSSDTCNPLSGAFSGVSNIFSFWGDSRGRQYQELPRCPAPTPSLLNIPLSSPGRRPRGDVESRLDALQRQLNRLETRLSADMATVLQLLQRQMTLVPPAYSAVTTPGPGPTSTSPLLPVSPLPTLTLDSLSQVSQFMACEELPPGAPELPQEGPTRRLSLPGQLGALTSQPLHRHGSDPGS", "assay": "hERG Manual Patch Clamp Assay (HEK 293 cells stably expressing hERG channels)", "type": "cell-based", "conditions": "human, HEK 293 cells stably expressing hERG channels, pH 7.4", "protocol": "hERG electrophysiology assay: The experimental compounds were assessed for hERG activity on HEK 293 cells stably expressing hERG channels using patch clamp technique. Coverslips plated with hERG expressing cells were placed in the experimental chamber and were perfused with a solution composed of (in mM): 140 NaCl, 4 KCl, 1.8 CaCl2), 1 MgCl2, 10 Glucose, 10 HEPES (pH 7.4, NaOH) at room temperature. Borosilicate patch pipettes had tip resistances of 2-4 Mohms when filled with an internal solution containing: 130 KCl, 1 MgCl2, 1 CaCl2), 10 EGTA, 10 HEPES, 5 ATP-K2 (pH 7.2, KOH). The cells were clamped at −80 mV in whole cell configuration using an Axopatch 200B (Axon instruments, Union City, Calif.) patch clamp amplifier controlled by pClamp (Axon instruments) software. Upon formation of a gigaseal, the following voltage protocol was repeatedly (0.05 Hz) applied to record tail currents: depolarization step from −80 mV to +20 mV for 2 seconds followed by a hyperpolarization step to −65 mV (3 seconds) to elicit tail currents. Compounds were applied after stabilization of tail current. First, tail currents were recorded in presence of extracellular solution alone (control) and subsequently, in extracellular solution containing increasing compound concentrations. Each compound concentration was applied for 2-5 minutes. The percentage inhibition at each concentration was calculated as reduction in peak tail current with respect to the peak tail current recorded in the presence of control solution. Data analysis was performed in a custom made template. The percent inhibitions at different concentrations were plotted to obtain a concentration response curve, which was subsequently fitted with a four parameter equation to calculate hERG IC50 value.\nA lower hERG % Inhibition value indicates less inhibition of the hERG current"}, "hROMK (human Kir1.1)": {"biological_target": "hROMK (human Kir1.1) (Homo sapiens (Human), UniProt P48048)", "sequence (P48048 whole entry)": "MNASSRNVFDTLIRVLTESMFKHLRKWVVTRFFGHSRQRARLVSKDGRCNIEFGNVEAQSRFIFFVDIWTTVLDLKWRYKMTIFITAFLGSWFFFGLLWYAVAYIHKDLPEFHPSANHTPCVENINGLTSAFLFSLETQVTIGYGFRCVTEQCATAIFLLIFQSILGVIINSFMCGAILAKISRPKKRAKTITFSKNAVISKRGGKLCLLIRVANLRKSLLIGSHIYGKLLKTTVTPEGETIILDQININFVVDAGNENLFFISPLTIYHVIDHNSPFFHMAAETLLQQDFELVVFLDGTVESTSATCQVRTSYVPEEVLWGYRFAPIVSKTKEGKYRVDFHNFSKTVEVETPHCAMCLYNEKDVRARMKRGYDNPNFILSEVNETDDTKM", "assay": "Thallium Flux Assay (FluxOR, CHO T-Rex hROMK stable cell line)", "type": "cell-based", "conditions": "CHO T-Rex hROMK cells, 10-point concentration response curve; read-out: Human ROMK TH Flux IC50"}},
  "data": [
    {"smiles": "Cc1cc(-n2cnc(CNC[C@H](O)c3ccc4c(c3C)COC4=O)c2)nc(C)c1C#N", "note": "[Example 68, (R)-6-(4-(((2-hydroxy-2-(4-methyl-1-oxo-1,3-dihydroisobenzofuran-5-yl)ethyl)amino)methyl)-1H-imidazol-1-yl)-2,4-dimethylnicotinonitrile]", "values": [
      {"measurement": "inhibition at 1 µM", "setting": "hERG channels", "result": 17, "unit": "%"},
      {"measurement": "IC50", "setting": "hROMK (human Kir1.1)", "result": 38, "unit": "nM"}
    ]},
    {"smiles": "COc1cc(-n2ncc3c(CNC[C@H](O)c4ccc5c(c4C)COC5=O)cccc32)ncc1C#N", "note": "[Example 55]", "values": [
      {"measurement": "inhibition at 1 µM", "setting": "hERG channels", "result": 69, "unit": "%"},
      {"measurement": "IC50", "setting": "hROMK (human Kir1.1)", "result": 78, "unit": "nM"}
    ]},
    {"smiles": "COc1cc(-n2cc(CNC[C@H](O)c3ccc4c(c3C)COC4=O)cn2)nc(C)c1C#N", "note": "[Example 70, (R)-6-(4-(((2-hydroxy-2-(4-methyl-1-oxo-1,3-dihydroisobenzofuran-5-yl)ethyl)amino)methyl)-1H-pyrazol-1-yl)-4-methoxy-2-methylnicotinonitrile]", "values": [
      {"measurement": "inhibition at 1 µM", "setting": "hERG channels", "result": 27, "unit": "%"},
      {"measurement": "IC50", "setting": "hROMK (human Kir1.1)", "result": 19, "unit": "nM"}
    ]},
    {"smiles": "Cc1cc(-n2cc(CNC[C@H](O)c3ccc4c(c3C)COC4=O)cn2)cnc1C#N", "note": "[Example 73, (R)-5-(4-(((2-hydroxy-2-(4-methyl-1-oxo-1,3-dihydroisobenzofuran-5-yl)ethyl)amino)methyl)-1H-pyrazol-1-yl)-3-methylpicolinonitrile]", "values": [
      {"measurement": "inhibition at 1 µM", "setting": "hERG channels", "result": 31, "unit": "%"},
      {"measurement": "IC50", "setting": "hROMK (human Kir1.1)", "result": 36, "unit": "nM"}
    ]},
    {"smiles": "Cc1cc(-n2cc(CNC[C@H](O)c3ccc4c(c3C)COC4=O)cn2)nc(C)c1C#N", "note": "[Example 71, (R)-6-(4-(((2-hydroxy-2-(4-methyl-1-oxo-1,3-dihydroisobenzofuran-5-yl)ethyl)amino)methyl)-1H-pyrazol-1-yl)-2,4-dimethylnicotinonitrile]", "values": [
      {"measurement": "inhibition at 1 µM", "setting": "hERG channels", "result": 39, "unit": "%"},
      {"measurement": "IC50", "setting": "hROMK (human Kir1.1)", "result": 22, "unit": "nM"}
    ]},
    {"smiles": "Cc1cn(-c2ncc(CNC[C@H](O)c3ccc4c(c3C)COC4=O)cn2)nc1C#N", "note": "[Example 94, (R)-1-(5-(((2-hydroxy-2-(4-methyl-1-oxo-1,3-dihydroisobenzofuran-5-yl)ethyl)amino)methyl)pyrimidin-2-yl)-4-methyl-1H-pyrazole-3-carbonitrile]", "values": [
      {"measurement": "inhibition at 1 µM", "setting": "hERG channels", "result": 13, "unit": "%"},
      {"measurement": "IC50", "setting": "hROMK (human Kir1.1)", "result": 56, "unit": "nM"}
    ]},
    {"smiles": "Cc1cc(-n2cc(CNC[C@H](O)c3ccc4c(c3C)COC4=O)c(C)n2)ncc1C#N", "note": "[Example 74, (R)-6-(4-(((2-hydroxy-2-(4-methyl-1-oxo-1,3-dihydroisobenzofuran-5-yl)ethyl)amino)methyl)-3-methyl-1H-pyrazol-1-yl)-4-methylnicotinonitrile]", "values": [
      {"measurement": "inhibition at 1 µM", "setting": "hERG channels", "result": 32, "unit": "%"},
      {"measurement": "IC50", "setting": "hROMK (human Kir1.1)", "result": 59, "unit": "nM"}
    ]},
    {"smiles": "COc1cc(-n2cc(CNC[C@H](O)c3ccc4c(c3OC)COC4=O)cn2)ncc1C#N", "note": "[Example 150, (R)-6-(4-(((2-hydroxy-2-(4-methoxy-1-oxo-1,3-dihydroisobenzofuran-5-yl)ethyl)amino)methyl)-1H-pyrazol-1-yl)-4-methoxynicotinonitrile]", "values": [
      {"measurement": "inhibition at 1 µM", "setting": "hERG channels", "result": 55, "unit": "%"},
      {"measurement": "IC50", "setting": "hROMK (human Kir1.1)", "result": 56, "unit": "nM"}
    ]},
    {"smiles": "Cc1c([C@@H](O)CNCc2cnc(-n3cnc(C(F)(F)F)c3)nc2)ccc2c1COC2=O", "note": "[Example 96, (R)-5-(1-hydroxy-2-(((2-(4-(trifluoromethyl)-1H-imidazol-1-yl)pyrimidin-5-yl)methyl)amino)ethyl)-4-methylisobenzofuran-1(3H)-one]", "values": [
      {"measurement": "inhibition at 1 µM", "setting": "hERG channels", "result": 19, "unit": "%"},
      {"measurement": "IC50", "setting": "hROMK (human Kir1.1)", "result": 62, "unit": "nM"}
    ]},
    {"smiles": "CNc1cc(-n2cc(CNC[C@H](O)c3ccc4c(c3C)COC4=O)cn2)ncc1C#N", "note": "[Example 146, (R)-6-(4-(((2-hydroxy-2-(4-methyl-1-oxo-1,3-dihydroisobenzofuran-5-yl)ethyl)amino)methyl)-1H-pyrazol-1-yl)-4-(methylamino)nicotinonitrile]", "values": [
      {"measurement": "inhibition at 1 µM", "setting": "hERG channels", "result": 61, "unit": "%"},
      {"measurement": "IC50", "setting": "hROMK (human Kir1.1)", "result": 25, "unit": "nM"}
    ]},
    {"smiles": "COc1nn(-c2ccc(CNC[C@H](O)c3ccc4c(c3C)COC4=O)cn2)cc1C#N", "note": "[Example 104, (R)-1-(5-(((2-hydroxy-2-(4-methyl-1-oxo-1,3-dihydroisobenzofuran-5-yl)ethyl)amino)methyl)pyridin-2-yl)-3-methoxy-1H-pyrazole-4-carbonitrile]", "values": [
      {"measurement": "inhibition at 1 µM", "setting": "hERG channels", "result": 42, "unit": "%"},
      {"measurement": "IC50", "setting": "hROMK (human Kir1.1)", "result": 9.4, "unit": "nM"}
    ]},
    {"smiles": "Cc1c([C@@H](O)CNCc2ccc(-n3cnc(C#N)c3)nc2)ccc2c1COC2=O", "note": "[Example 131, (R)-1-(5-(((2-hydroxy-2-(4-methyl-1-oxo-1,3-dihydroisobenzofuran-5-yl)ethyl)amino)methyl)pyridin-2-yl)-1H-imidazole-4-carbonitrile]", "values": [
      {"measurement": "inhibition at 1 µM", "setting": "hERG channels", "result": 79, "unit": "%"},
      {"measurement": "IC50", "setting": "hROMK (human Kir1.1)", "result": 9.2, "unit": "nM"}
    ]},
    {"smiles": "Cc1c([C@@H](O)CNCc2cnn(-c3cc(C4CC4)c(C#N)cn3)c2)ccc2c1COC2=O", "note": "[Example 148, (R)-4-cyclopropyl-6-(4-(((2-hydroxy-2-(4-methyl-1-oxo-1,3-dihydroisobenzofuran-5-yl)ethyl)amino)methyl)-1H-pyrazol-1-yl)nicotinonitrile]", "values": [
      {"measurement": "inhibition at 1 µM", "setting": "hERG channels", "result": 72, "unit": "%"},
      {"measurement": "IC50", "setting": "hROMK (human Kir1.1)", "result": 200, "unit": "nM"}
    ]},
    {"smiles": "Cc1c(C(O)CN(C)Cc2cnc(-c3ccc(C#N)c(F)c3)nc2)ccc2c1COC2=O", "note": "(stereo not shown) [Example 19-I, 2-fluoro-4-(5-(((2-hydroxy-2-(4-methyl-1-oxo-1,3-dihydroisobenzofuran-5-yl)ethyl)(methyl)amino)methyl)pyrimidin-2-yl)benzonitrile]", "values": [
      {"measurement": "inhibition at 1 µM", "setting": "hERG channels", "result": 33, "unit": "%"},
      {"measurement": "IC50", "setting": "hROMK (human Kir1.1)", "result": 150, "unit": "nM"}
    ]},
    {"smiles": "Cc1cn(-c2ccc(CNC[C@H](O)c3ccc4c(c3C)COC4=O)cn2)nc1C#N", "note": "[Example 92, (R)-1-(5-(((2-hydroxy-2-(4-methyl-1-oxo-1,3-dihydroisobenzofuran-5-yl)ethyl)amino)methyl)pyridin-2-yl)-4-methyl-1H-pyrazole-3-carbonitrile]", "values": [
      {"measurement": "inhibition at 1 µM", "setting": "hERG channels", "result": 24, "unit": "%"},
      {"measurement": "IC50", "setting": "hROMK (human Kir1.1)", "result": 6.4, "unit": "nM"}
    ]},
    {"smiles": "Cc1cnc(-n2cc(CNC[C@H](O)c3ccc4c(c3C)COC4=O)cn2)cc1C#N", "note": "[Example 49, (R)-2-(4-(((2-hydroxy-2-(4-methyl-1-oxo-1,3-dihydroisobenzofuran-5-yl)ethyl)amino)methyl)-1H-pyrazol-1-yl)-5-methylisonicotinonitrile]", "values": [
      {"measurement": "inhibition at 1 µM", "setting": "hERG channels", "result": 18, "unit": "%"},
      {"measurement": "IC50", "setting": "hROMK (human Kir1.1)", "result": 32, "unit": "nM"}
    ]},
    {"smiles": "Cc1c(-c2cnn(CCNC[C@H](O)c3ccc4c(c3C)COC4=O)c2)ccc2c1COC2=O", "note": "[Example 43, (R)-5-(l-hydroxy-2-((2-(4-(4-methyl-1-oxo-1,3-dihydroisobenzofuran-5-yl)-1H-pyrazol-1-yl)ethyl)amino)ethyl)-4-methylisobenzofuran-1(3H)-one]", "values": [
      {"measurement": "inhibition at 1 µM", "setting": "hERG channels", "result": 7.1, "unit": "%"},
      {"measurement": "IC50", "setting": "hROMK (human Kir1.1)", "result": 66, "unit": "nM"}
    ]},
    {"smiles": "Cc1c([C@@H](O)CNCc2cnn(-c3ccc4c(c3C)COC4=O)c2)ccc2c1COC2=O", "note": "[Example 75, (R)-5-(1-hydroxy-2-(((1-(4-methyl-1-oxo-1,3-dihydroisobenzofuran-5-yl)-1H-pyrazol-4-yl)methyl)amino)ethyl)-4-methylisobenzofuran-1(3H)-one]", "values": [
      {"measurement": "inhibition at 1 µM", "setting": "hERG channels", "result": 4.3, "unit": "%"},
      {"measurement": "IC50", "setting": "hROMK (human Kir1.1)", "result": 65, "unit": "nM"}
    ]},
    {"smiles": "Cc1c([C@@H](O)CNCc2cn(-c3ccc4oc(=O)n(C)c4c3)nc2C(F)(F)F)ccc2c1COC2=O", "note": "[Example 95, (R)-5-(4-(((2-hydroxy-2-(4-methyl-1-oxo-1,3-dihydroisobenzofuran-5-yl)ethyl)amino)methyl)-3-(trifluoromethyl)-1H-pyrazol-1-yl)-3-methylbenzo[d]oxazol-2(3H)-one]", "values": [
      {"measurement": "inhibition at 1 µM", "setting": "hERG channels", "result": 11, "unit": "%"},
      {"measurement": "IC50", "setting": "hROMK (human Kir1.1)", "result": 56, "unit": "nM"}
    ]},
    {"smiles": "Cc1c([C@@H](O)CN(Cc2ccc(-c3ccc4oc(=O)n(C)c4c3)nc2)CC2CC2)ccc2c1COC2=O", "note": "[Example 162, (R)-5-(5-(((cyclopropylmethyl)(2-hydroxy-2-(4-methyl-1-oxo-1,3-dihydroisobenzofuran-5-yl)ethyl)amino)methyl)pyridin-2-yl)-3-methylbenzo[d]oxazol-2(3H)-one]", "values": [
      {"measurement": "inhibition at 1 µM", "setting": "hERG channels", "result": 44, "unit": "%"},
      {"measurement": "IC50", "setting": "hROMK (human Kir1.1)", "result": 110, "unit": "nM"}
    ]}
  ]
}
